Data on one molecule can be found in patent publication US10278931B2, “Composition for treatment of inflammatory bowel disease and atopic dermatitis” (INNOPHARMASCREEN INC., priority 2015, dated 2019).

Assay [1] relates to IL-6, IL-22, IL-33 cytokine proteins. As to the kind of experiment: Cytokine & chemokine antibody microarray protein chip of DNCB skin tissue. The conditions noted are these: 1% DNCB and 1 μM vs DNCB only; within threshold 1±0.1. The assay is classed as in vivo, balb/c mice. The text has this: A. Preparation of tissue samples: The mouse skin tissue was frozen in liquid nitrogen and then finely ground in a mortar. Liquid nitrogen was intermittently added to prevent the tissue from being thawed. The finely ground skin tissue was placed in lysis M buffer to prepare a tissue sample lysate.
B. Fluorescent labeling of tissue lysates: Proteins were extracted from each of the tissue lysate treated with the sample for a certain period of time and an untreated tissue lysate (Lysis M extraction solution, Roche) and labeled with a fluorescent material (Cy3 or Cy5) (GE Healthcare). First, the amount of protein from each tissue lysate was adjusted to be at least 1 mg, and then coupling buffer (0.1M sodium carbonate buffer, pH 9.3) was added and mixed well. Cy3 and Cy5 dyes were added to each tissue lysate to which the coupling buffer had been added and mixed well for labeling at 4° C. for 16 hours. A control treated only with DNCB was labeled with Cy3 and Cy5, and the experimental groups treated with the sample were also labeled with Cy3 and Cy5. After labeling with the fluorescent dyes, free dyes were removed using a Post-reactive Spin column (Sigma).
C. Fabrication of antibody microarrays: ProteoChip™ (Proteogen, Inc., Seoul, Korea) was used as a protein chip, and antibody microarrays were fabricated by spotting antibodies against 26 proteins in cells on a substrate immobilized with 200 μg/ml of protein A on the ProteoChip™. First, the antibodies were diluted to 100 μg/ml with phosphate buffer containing 30% glycerol and the antibody arrays were fixed overnight at 4° C. […]
D. Hybridization of antibody arrays: Tissue lysates labeled with fluorescent materials were quantified (Bradford method), and 30 μg of each fluorescently labeled samples were mixed in 10 ml of a reaction solution. […] Each slide was analyzed using a fluorescent microarray scanner. […] The ratio of Cy5 to Cy3 in each spot was calculated using a software (Genepix 6.0). The INR values were calculated by sample-Cy5/control-Cy3×sample-Cy3/control-Cy5. […]

The next assay has as its system active caspase-1. Kind of assay: Western blotting of active caspase-1 in HMC-1 cells. The assay is classed as cell-based, human. As to the method: (6) Western blotting analysis: Cells were seeded in a 6-well plate and then treated with a drug, and after a certain period of time, the cells were harvested. After harvest, the cells were washed with PBS and then lysed. 50 μg of tissue protein and cell extract protein were subjected to electrophoresis on 12% gel, transferred to nitrocellulose paper, and then blocked with 6% bovine serum albumin for 2 hours. Each protein was reacted with a primary antibody overnight and washed with PBS-tween. Thereafter, the resulting protein was reacted with a secondary antibody for 2 hours, washed, and then detected using an ECL solution kit.

Assay [2] concerns the target T1, human recombinant caspase-1 (Homo sapiens, UniProt P29466).
T1 sequence (P29466 120-404): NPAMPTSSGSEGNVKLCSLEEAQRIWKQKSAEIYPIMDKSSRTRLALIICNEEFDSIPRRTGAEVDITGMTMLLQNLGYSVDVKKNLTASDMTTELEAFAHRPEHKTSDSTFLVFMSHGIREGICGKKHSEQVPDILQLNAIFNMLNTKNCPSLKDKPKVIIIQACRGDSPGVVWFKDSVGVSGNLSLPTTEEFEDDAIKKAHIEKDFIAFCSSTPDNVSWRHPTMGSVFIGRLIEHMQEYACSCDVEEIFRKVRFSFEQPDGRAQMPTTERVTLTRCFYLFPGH
As to the kind of experiment: Recombinant caspase-1 activity assay (kit). The assay is classed as biochemical. The conditions noted are these: caspase-1 assay kit. As to the method:
(4) Caspase-1 assay: Recombinant caspase-1 and a drug were allowed to react, and then activity measurement was performed using a caspase-1 assay kit (R&D Systems Inc., Minneapolis, Minn., USA).
Recombinant caspase-1 and a drug were allowed to react, and then activity was measured using a caspase-1 assay kit (R&D Systems Inc., Minneapolis, Minn., USA).

Another assay relates to TSLP mRNA. Kind of assay: TSLP mRNA expression (RT-PCR) in HMC-1 cells. The assay is classed as cell-based, human. As to the method: (§1) (1) Cell culture: A human mast cell line (HMC-1) was cultured in an IMDM supplemented with 10% FBS at 37° C. and 5% CO2. Candidate materials were dissolved in DMSO, and then filtered using a 0.22 μm filter. The resulting candidate materials were diluted with DMSO and the HMC-1 cells were treated therewith.
(§2) (5) Reverse transcription-polymerase chain reaction (RT-PCR) quantitative real time PCR: Total RNA was isolated from cells and tissues, and cDNA was synthesized using a reverse transcriptase and was then reacted with cytokine primers to be analyzed, followed by PCR and real-time PCR. The RT-PCR products were subjected to electrophoresis using 1.5% agarose gel for analysis.

A further assay relates to IL-6, IL-22, IL-33. As to the kind of experiment: Western blotting of cytokines in DNCB skin tissue lysates. The assay is classed as in vivo, balb/c mice. As to conditions: changed slightly. As to the method: E. Western blotting analysis: Western blotting analysis was performed to verify differences in protein expression in the above antibody array experiment. Proteins from the tissue lysates were separated on SDS-PAGE. The electrophoresed proteins were then transferred onto the PVDF membranes. After washing with PBST solution, the PVDF membranes were blocked with 5% skim milk powder for 1 hour and then reacted with a primary antibody overnight at 4° C. The membranes were washed with PBST solution and reacted with a secondary antibody (anti-IgG) conjugated with horseradish peroxidase (HRP) for 1 hour at room temperature and examined with a photoresist film.
In general terms: In western blotting, separated proteins are transferred to a membrane and probed.

A further assay has as its system inflammatory cytokines. Kind of assay: Inflammatory cytokine production and mRNA expression in HMC-1 cells. The assay is classed as cell-based, human. As to the method: as §1, §2

With `Cl.N=C(N)NC(=N)Nc1ccc(Cl)cc1` [IPS-07001], in assay [1], the “IL-6 protein expression (antibody chip, INR)” value is “decrease”; the “IL-22 protein expression (antibody chip, INR)” value was “decrease”; the “IL-33 protein expression (antibody chip, INR)” value is “decrease”. Moreover, the “expression of active caspase-1” value in the assay with active caspase-1 was “inhibited”. Besides, the “recombinant caspase-1 activity” value in assay [2] was “significantly inhibited”. Also, the “TSLP mRNA expression” value in the assay with TSLP mRNA is recorded as “significantly inhibited”. Also, in the assay on IL-6, IL-22, IL-33, the “IL-6 protein expression (western blotting)” value is “decreased”, the “IL-22 protein expression (western blotting)” value was “decreased” and the “IL-33 protein expression (western blotting)” value is recorded as “decreased”. Besides, the “production and mRNA expression of various inflammatory cytokines” value in the assay with inflammatory cytokines was “significantly inhibited”.
